# Assay results reported in patent US8569045B2, “Water toxicity detecting apparatus and method using sulfur particles” (University-Industry Cooperation Foundation, Kangwon …, priority 2007, dated 2013).
# Test system: sulfur-oxidizing microbes
# Experiment: Water toxicity detection with sulfur particles: electrical conductivity difference between inflow and outflow water, continuous reaction container
# Format: cell-based, Thiobacillus
# Conditions: 30 ppm test substance in the sample; EBCT 17 minute; 30° C.; ratio 0~1, about 1 = no toxicity, about 0 = high toxicity; 0.3 corresponds to issuing alarm
# Method: When the microbes attached around the sulfur particles are grown in the reaction container 130 of which conditions such as temperature is constant, the sulfur is oxidized at a constant speed. The following formula expresses a reaction of generation of sulfate ions and hydrogen ions in the processes. S+H2O+1.5O2−>SO4^2−+2H^+ΔG°′=−587.1 kJ/reaction
# Referring to the above formula, the sulfur particles react with the microbes, the inflow water, and the oxygen in the reaction container 130 to generate a predetermined amount of sulfate ions. In case of non-toxic outflow water, the amount of sulfate ions thereof is increased by a predetermined amount in comparison with the inflow water. Since a degree of alkali in a river water is generally low, pH of the outflow water is decreased in comparison with the inflow water.
# However, in case of the inflow water containing toxic substances, a degree of activation of the microbes attached around the sulfur particles is lowered, so that the sulfur particles can not be oxidized. […]
# The reaction container is filled with a 30 mL of sulfur particles. […] While an empty bed contact time (EBCT) of the inflow water is changed among 7.1, 8.3, 10.0, 12.5, and 16.7 minutes, the pH and electrical conductivity of the inflow water and the outflow water are measured. The EBCT is calculated by dividing a volume (30 mL) of the sulfur particles with a flow rate. […]
substance,measurement,value
hexavalent chrome,ECDifference ratio,0.3
